Test results as given in patent US20100061928A1, “LABELLED ANALOGUES OF HALOBENZAMIDES AS RADIOPHARMACEUTICALS” (Institut National De La Sante et De La Recherche Medicale …, priority 2006, published 2010).
Counter-ions that a name gives are not always drawn.

What was measured:
[1] = Elimination of the molecules: cumulative urinary and faecal excretion 0-72 hours; format: in vivo, mouse; settings: for Faecal elimination 0-72 hours (Faeces) / Urinary and faecal elimination 0-72 hours (Total) / Urinary elimination 0-72 hours (Urine): cumulative excretion 0-72 hours; for Faecal elimination 0-72 hours (Faeces) / Urinary elimination 0-72 hours (Urine): mice in metabolic cages; for Urinary and faecal elimination 0-72 hours (Total): urine + faeces
tumour = test: Dosimetry with regard to the tumour (MIRD programme, extrapolated to ^131I); settings: for Effective period: extrapolated to 131I labelling; for Biological period: from biodistribution data
[2] = test system: grafted B16 F0 murine melanoma tumour; test: Biodistribution of the ^125I-labelled molecules in the melanoma-bearing mouse (autoradiography of whole-body sections); settings: for tumour concentration, times higher than with BZA: at 72 hours (FIG. 1B); for tumour concentration, % of the injected dose per gram of tumour: from the first hour; for Biodistribution, Mean, B 16 / Biodistribution, radioactivity concentration in B 16, Mean: B 16 tumour
Procedure: The distribution of the radioactivity of the various compounds in the body (tumour and other organs) is quantified using an Ambis 4000 image analyzer on sections of whole animals. […] All the in vivo experimentation is carried out within the context defined by French legislation relating to animal experimentation.
The B16 F0 melanoma cells are provided by the ATCC and cultured in monolayers in culture medium (MEM, Invitrogen) supplemented with 10% foetal calf serum and antibiotics. The cultures are maintained by subculturing after trypsinization. The cells of the first passages are frozen and stored in liquid nitrogen. For the transplanting, the cells in culture at confluence are detached by trypsinization and washed with phosphate buffer (PBS).
The distribution of the radioactivity present in the sections is analyzed using an AMBIS 4000 analyzer (Scanalytics, CSPI, San Diego, Calif.), which is a proportional counter with a multiwire chamber validated and calibrated beforehand for the monitoring of iodine in the mouse. The measurements require acquisition times of 1000 minutes. […] The value of radioactivity per unit of surface area (cpm/mm^2) is converted to concentration (kBq/g) and expressed as percentage of the injected dose/g of tissue (% ID/g).

[3] = 1 H after i.v. administration, ^125I-labelled compound
[4] = 3 H after i.v. administration, ^125I-labelled compound
[5] = 6 H after i.v. administration, ^125I-labelled compound
[6] = 24 H after i.v. administration, ^125I-labelled compound
[7] = 72 H after i.v. administration, ^125I-labelled compound
[8] = 1 H after i.v., 125I-labelled, dose = 1.09 MBq
[9] = 3 H after i.v., 125I-labelled, dose = 1.09 MBq
[10] = 24 H after i.v., 125I-labelled, dose = 1.09 MBq
[11] = 72 H after i.v., 125I-labelled, dose = 1.09 MBq

CCN(CC)CCNC(=O)c1nc2ccc(I)cc2[nH]1.Cl.Cl [compound 26, N-(2-diethylaminoethyl)-5-iodobenzimidazole-2-carboxamide dihydrochloride]
Faecal elimination 0-72 hours (Faeces) [1]: 40.7% | Urinary and faecal elimination 0-72 hours (Total) [1]: 57.8% | Urinary elimination 0-72 hours (Urine) [1]: 17.1% | elimination kinetics from the body (in words) ([1]; urine and faeces, up to 72 hours): lower elimination | Effective period (tumour): 35.1 h | Biological period (tumour): 42.9 hours | Concentration of radioactivity, B 16 (tumour), Mean [2, 3]: 14.78 % ID/g | Concentration of radioactivity, Ic (intestinal contents), Mean [2, 3]: 105.55 % ID/g | Concentration of radioactivity, Sc (stomach contents), Mean [2, 3]: 24.46 % ID/g | Concentration of radioactivity, blood (measured in the heart cavity), Mean [2, 3]: 3.31 % ID/g | Concentration of radioactivity, kidney, Mean [2, 3]: 6.90 % ID/g | Concentration of radioactivity, liver, Mean [2, 3]: 13.08 % ID/g | Concentration of radioactivity, lungs, Mean [2, 3]: 5.16 % ID/g | Concentration of radioactivity, muscle (skeletal muscle), Mean [2, 3]: 0.55 % ID/g | Concentration of radioactivity, pancreas, Mean [2, 3]: 6.17 % ID/g | Concentration of radioactivity, spleen, Mean [2, 3]: 11.51 % ID/g | Concentration of radioactivity, uvea (pigmented tissues of the eye), Mean [2, 3]: 12.87 % ID/g | Concentration of radioactivity, B 16 (tumour), Mean [2, 4]: 16.13 % ID/g | Concentration of radioactivity, GB (gall bladder), Mean [2, 4]: 160.60 % ID/g | Concentration of radioactivity, Ic (intestinal contents), Mean [2, 4]: 72.05 % ID/g | Concentration of radioactivity, Sc (stomach contents), Mean [2, 4]: 17.98 % ID/g | Concentration of radioactivity, blood (measured in the heart cavity), Mean [2, 4]: 1.33 % ID/g | Concentration of radioactivity, kidney, Mean [2, 4]: 4.57 % ID/g | Concentration of radioactivity, liver, Mean [2, 4]: 7.15 % ID/g | Concentration of radioactivity, lungs, Mean [2, 4]: 3.74 % ID/g | Concentration of radioactivity, thyroid, Mean [2, 4]: 63.44 % ID/g | Concentration of radioactivity, uvea (pigmented tissues of the eye), Mean [2, 4]: 24.40 % ID/g | Concentration of radioactivity, B 16 (tumour), Mean [2, 5]: 9.90 % ID/g | Concentration of radioactivity, GB (gall bladder), Mean [2, 5]: 38.11 % ID/g | Concentration of radioactivity, Ic (intestinal contents), Mean [2, 5]: 95.86 % ID/g | Concentration of radioactivity, Sc (stomach contents), Mean [2, 5]: 8.62 % ID/g | Concentration of radioactivity, liver, Mean [2, 5]: 3.38 % ID/g | Concentration of radioactivity, spleen, Mean [2, 5]: 14.97 % ID/g | Concentration of radioactivity, thyroid, Mean [2, 5]: 34.17 % ID/g | Concentration of radioactivity, uvea (pigmented tissues of the eye), Mean [2, 5]: 10.09 % ID/g | Concentration of radioactivity, B 16 (tumour), Mean [2, 6]: 7.06 % ID/g | Concentration of radioactivity, Ic (intestinal contents), Mean [2, 6]: 3.19 % ID/g | Concentration of radioactivity, Sc (stomach contents), Mean [2, 6]: 2.32 % ID/g | Concentration of radioactivity, thyroid, Mean [2, 6]: 142.88 % ID/g | Concentration of radioactivity, uvea (pigmented tissues of the eye), Mean [2, 6]: 10.44 % ID/g | Concentration of radioactivity, B 16 (tumour), Mean [2, 7]: 4.54 % ID/g | Concentration of radioactivity, thyroid, Mean [2, 7]: 174.73 % ID/g | Concentration of radioactivity, uvea (pigmented tissues of the eye), Mean [2, 7]: 7.26 % ID/g | tumour concentration, times higher than with BZA [2]: 6 times | tumour concentration, % of the injected dose per gram of tumour [2]: 14.8 % ID/g

CCN(CC)CCNC(=O)c1ccc(I)cc1 [BZA, N-(2-diethylaminoethyl)-4-iodobenzamide, reference compound]
Faecal elimination 0-72 hours (Faeces) [1]: 4.8% | Urinary and faecal elimination 0-72 hours (Total) [1]: 87.9% | Urinary elimination 0-72 hours (Urine) [1]: 83.1% | elimination route (in words) ([1]; urinary versus faecal, 0-72 hours): predominantly in the urine | Effective period (tumour): 17.8 h | Biological period (tumour): 19.6 hours

CCN(CC)CCNC(=O)c1cccc2cc3cc(I)ccc3nc12 [compound 111, N-(2-diethylaminoethyl)-7-iodoacridine-4-carboxamide dihydrochloride]
Faecal elimination 0-72 hours (Faeces) [1]: 23.2% | Urinary and faecal elimination 0-72 hours (Total) [1]: 31.7% | Urinary elimination 0-72 hours (Urine) [1]: 8.5% | Biodistribution, Mean, B 16 ([2]; 1 H): 4.78 | Biodistribution, Mean, B 16 ([2]; 3 H): 3.98 | Biodistribution, Mean, B 16 ([2]; 6 H): 4.57 | Biodistribution, Mean, B 16 ([2]; 24 H): 2.77 | Biodistribution, Mean, B 16 ([2]; 72 H): 1.67 | Biodistribution, Mean, GB ([2]; 1 H): 43.71 | Biodistribution, Mean, GB ([2]; 6 H): 12.79 | Biodistribution, Mean, Ic ([2]; 1 H): 23.92 | Biodistribution, Mean, Ic ([2]; 3 H): 30.20 | Biodistribution, Mean, Ic ([2]; 6 H): 28.54 | Biodistribution, Mean, Ic ([2]; 24 H): 1.83 | Biodistribution, Mean, Ic ([2]; 72 H): 0.75 | Biodistribution, Mean, Sc ([2]; 1 H): 10.16 | Biodistribution, Mean, Sc ([2]; 3 H): 9.56 | Biodistribution, Mean, Sc ([2]; 6 H): 6.06 | Biodistribution, Mean, Sc ([2]; 24 H): 0.73 | Biodistribution, Mean, blood ([2]; 1 H): 0.75 | Biodistribution, Mean, blood ([2]; 3 H): 0.54 | Biodistribution, Mean, blood ([2]; 6 H): 0.42 | Biodistribution, Mean, brain ([2]; 1 H): 0.28 | Biodistribution, Mean, brain ([2]; 3 H): 0.27 | Biodistribution, Mean, brain ([2]; 6 H): 0.11 | Biodistribution, Mean, kidney ([2]; 1 H): 3.07 | Biodistribution, Mean, kidney ([2]; 3 H): 1.27 | Biodistribution, Mean, kidney ([2]; 6 H): 0.77 | Biodistribution, Mean, liver ([2]; 1 H): 5.38 | Biodistribution, Mean, liver ([2]; 3 H): 3.62 | Biodistribution, Mean, liver ([2]; 6 H): 2.16 | Biodistribution, Mean, liver ([2]; 24 H): 0.48 | Biodistribution, Mean, liver ([2]; 72 H): 0.42 | Biodistribution, Mean, lungs ([2]; 1 H): 1.70 | Biodistribution, Mean, lungs ([2]; 3 H): 0.88 | Biodistribution, Mean, lungs ([2]; 6 H): 0.59 | Biodistribution, Mean, muscle ([2]; muscle, 1 H): 0.30 | Biodistribution, Mean, pancreas ([2]; 1 H): 1.38 | Biodistribution, Mean, pancreas ([2]; 3 H): 0.70 | Biodistribution, Mean, spleen ([2]; 1 H): 3.11 | Biodistribution, Mean, spleen ([2]; 3 H): 1.29 | Biodistribution, Mean, spleen ([2]; 6 H): 0.87 | Biodistribution, Mean, thyroid ([2]; 1 H): 21.00 | Biodistribution, Mean, thyroid ([2]; 24 H): 40.73 | Biodistribution, Mean, thyroid ([2]; 72 H): 38.07 | Biodistribution, Mean, uvea ([2]; 1 H): 3.83 | Biodistribution, Mean, uvea ([2]; 3 H): 4.69 | Biodistribution, Mean, uvea ([2]; 6 H): 3.51 | Biodistribution, Mean, uvea ([2]; 24 H): 3.45 | Biodistribution, Mean, uvea ([2]; 72 H): 1.96

CCCN(CCC)CCCCNC(=O)c1cnc2cc(I)ccc2n1 [compound 144, N-(4-dipropylaminobutyl)-6-iodoquinoxaline-2-carboxamide dihydrochloride]
Faecal elimination 0-72 hours (Faeces) [1]: 34.8% | Urinary and faecal elimination 0-72 hours (Total) [1]: 80.5% | Urinary elimination 0-72 hours (Urine) [1]: 45.7% | Biodistribution, radioactivity concentration in B 16, Mean [2, 8]: 14.69 % ID/g | Biodistribution, radioactivity concentration in B 16, Mean [2, 9]: 44.92 % ID/g | Biodistribution, radioactivity concentration in B 16, Mean [2, 10]: 37.46 % ID/g | Biodistribution, radioactivity concentration in B 16, Mean [2, 11]: 24.02 % ID/g | Biodistribution, radioactivity concentration in Ic, Mean [2, 8]: 27.28 % ID/g | Biodistribution, radioactivity concentration in Ic, Mean [2, 9]: 29.12 % ID/g | Biodistribution, radioactivity concentration in Sc, Mean [2, 8]: 24.11 % ID/g | Biodistribution, radioactivity concentration in Sc, Mean [2, 9]: 34.86 % ID/g | tumour concentration, times higher than with BZA [2]: 31 times | Biodistribution, radioactivity concentration in blood, Mean [2, 8]: 1.85 % ID/g | Biodistribution, radioactivity concentration in blood, Mean [2, 9]: 1.61 % ID/g | Biodistribution, radioactivity concentration in brain, Mean [2, 8]: 0.75 % ID/g | Biodistribution, radioactivity concentration in brain, Mean [2, 9]: 0.46 % ID/g | tumour concentration, % of the injected dose per gram of tumour [2]: 14.7 % ID/g | Biodistribution, radioactivity concentration in kidney, Mean [2, 8]: 24.42 % ID/g | Biodistribution, radioactivity concentration in kidney, Mean [2, 9]: 17.73 % ID/g | Biodistribution, radioactivity concentration in liver, Mean [2, 8]: 12.84 % ID/g | Biodistribution, radioactivity concentration in liver, Mean [2, 9]: 7.84 % ID/g | Biodistribution, radioactivity concentration in lungs, Mean [2, 8]: 5.81 % ID/g | Biodistribution, radioactivity concentration in lungs, Mean [2, 9]: 4.91 % ID/g | Biodistribution, radioactivity concentration in muscle, Mean ([2]; muscle, 3 H after i.v., 125I-labelled, dose = 1.09 MBq): 0.79 % ID/g | Biodistribution, radioactivity concentration in pancreas, Mean [2, 8]: 23.88 % ID/g | Biodistribution, radioactivity concentration in pancreas, Mean [2, 9]: 13.06 % ID/g | Biodistribution, radioactivity concentration in spleen, Mean [2, 8]: 18.70 % ID/g | Biodistribution, radioactivity concentration in spleen, Mean [2, 9]: 6.08 % ID/g | Biodistribution, radioactivity concentration in thyroid, Mean [2, 9]: 60.78 % ID/g | Biodistribution, radioactivity concentration in thyroid, Mean [2, 10]: 44.74 % ID/g | Biodistribution, radioactivity concentration in uvea, Mean [2, 8]: 28.75 % ID/g | Biodistribution, radioactivity concentration in uvea, Mean [2, 9]: 41.75 % ID/g | Biodistribution, radioactivity concentration in uvea, Mean [2, 10]: 32.62 % ID/g | Biodistribution, radioactivity concentration in uvea, Mean [2, 11]: 23.28 % ID/g
